Patent US20190211024A1 (priority 2016, published 2019)
Several values for one entry are separate records, joined by “and”; a condition that tells them apart may be missing. Identical values can stand only once. Counter-ions that a name gives are not always drawn.

System: influenza virus A/California/07/09 (H1N1) pdm09
Design: species or system mice
Conditions: mouse, in vivo

| SMILES | Time after infection within which the drug must be administered for greatest efficacy | Mice rescued from infection | Index of protection % (100 mg/kg/day, dihydrate) | AST (average life span of animals) (po, 100 mg/kg/day) | Mortality by day: 7 (po, 100 mg/kg/day) | Mortality by day: 8 (po, 100 mg/kg/day) | Mortality by day: 10 (po, 100 mg/kg/day) | Mortality, % (po, 100 mg/kg/day) |
| --- | --- | --- | --- | --- | --- | --- | --- | --- |
| CCOC(=O)C1=C[C@@H](OC(CC)CC)[C@H](NC(C)=O)[C@@H](N)C1 [Tamiflu] | ≤ 24 h |  |  |  |  |  |  |  |
| CSc1nc2[nH]nc([N+](=O)[O-])c(=O)n2n1 [Triazavirin, sodium salt of 2-methylthio-6-nitro-1,2,4-triazolo[5,1-c]1,2,4-triazine-7-one, dihydrate] |  | 80% | 63% and 62.5% | 13.7 cyr. | 1 | 1 | 1 | 20.0% |
